2 compounds from patent US10781456B2, “Carbon-neutral and carbon-positive photorespiration bypass routes supporting higher photosynthetic rate and yield” (Max-Planck-Gesellschaft zur Förderung der Wissenschaften …, priority 2015, dated 2020) can be followed below.

What all share (format): biochemical
The target of test [1] is T1, propionyl-CoA carboxylase from Methylobacterium extorquens (PCCMe) variant PCCMe_D407I_Y143H (pccA SEQ ID NO: 2; pccB_D407I_Y143H SEQ ID NO: 6) (Methylorubrum extorquens, UniProt C5AP75+C5AWU5, D407I/Y143H).
T1 sequence (C5AP75 1-510 Y143H/D407I): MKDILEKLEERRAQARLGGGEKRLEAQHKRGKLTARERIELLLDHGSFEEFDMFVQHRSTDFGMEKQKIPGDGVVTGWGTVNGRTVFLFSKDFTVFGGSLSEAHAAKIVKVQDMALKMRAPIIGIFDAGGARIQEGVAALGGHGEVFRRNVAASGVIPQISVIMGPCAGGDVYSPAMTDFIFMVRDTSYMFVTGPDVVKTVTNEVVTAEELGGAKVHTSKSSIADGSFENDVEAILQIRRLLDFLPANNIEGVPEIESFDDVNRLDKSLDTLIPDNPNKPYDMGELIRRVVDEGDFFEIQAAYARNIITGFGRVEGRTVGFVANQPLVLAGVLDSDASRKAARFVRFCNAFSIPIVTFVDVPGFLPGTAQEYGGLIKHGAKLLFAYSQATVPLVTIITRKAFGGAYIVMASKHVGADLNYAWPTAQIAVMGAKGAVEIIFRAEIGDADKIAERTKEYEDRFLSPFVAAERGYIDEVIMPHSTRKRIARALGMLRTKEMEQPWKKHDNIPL
T1 sequence (C5AWU5 1-667): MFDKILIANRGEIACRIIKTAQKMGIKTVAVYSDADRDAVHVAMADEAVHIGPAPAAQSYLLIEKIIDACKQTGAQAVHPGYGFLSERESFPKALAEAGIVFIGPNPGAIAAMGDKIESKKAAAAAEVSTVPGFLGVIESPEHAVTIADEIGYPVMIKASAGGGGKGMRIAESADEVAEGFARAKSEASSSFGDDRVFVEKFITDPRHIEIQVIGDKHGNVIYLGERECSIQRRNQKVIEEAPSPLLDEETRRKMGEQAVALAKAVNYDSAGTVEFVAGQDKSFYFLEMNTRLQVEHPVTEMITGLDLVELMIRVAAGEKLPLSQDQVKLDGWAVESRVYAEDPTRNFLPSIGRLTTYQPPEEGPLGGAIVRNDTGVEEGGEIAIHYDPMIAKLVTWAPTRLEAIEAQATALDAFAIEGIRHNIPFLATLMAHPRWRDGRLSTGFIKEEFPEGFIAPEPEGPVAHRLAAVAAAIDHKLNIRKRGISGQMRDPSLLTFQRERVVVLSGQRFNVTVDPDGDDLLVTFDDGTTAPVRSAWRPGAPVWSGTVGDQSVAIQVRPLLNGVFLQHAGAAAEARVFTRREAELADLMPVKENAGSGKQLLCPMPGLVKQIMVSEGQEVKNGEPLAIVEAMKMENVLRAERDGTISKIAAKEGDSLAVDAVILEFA
The test is described as follows: PCCMe_D407I_Y143H activity for conversion of glycolyl-CoA into tartronyl-CoA (reaction 3#), coupled ATP hydrolysis (PK/LDH) assay. Conditions: 37° C., pH 7.7, ATP hydrolysis assay, 0.125-3 mM glycolyl-CoA; n=2.

For test [2], the system named is malonyl-CoA reductase from Erythrobacter sp. NAP1 (MCRE), SEQ ID NO: 10. The test is described as follows: MCRE activity for conversion of tartronyl-CoA into glycerate (reactions 4# and 5), NADPH oxidation. Conditions: 37° C., assay as for MCRCa; n=2.
Test [3] deals with T2, malonyl-CoA reductase from Chloroflexus aurantiacus (MCRCa), SEQ ID NO: 8 (Chloroflexus aurantiacus, UniProt Q6QQP7).
T2 sequence (Q6QQP7 1-1220): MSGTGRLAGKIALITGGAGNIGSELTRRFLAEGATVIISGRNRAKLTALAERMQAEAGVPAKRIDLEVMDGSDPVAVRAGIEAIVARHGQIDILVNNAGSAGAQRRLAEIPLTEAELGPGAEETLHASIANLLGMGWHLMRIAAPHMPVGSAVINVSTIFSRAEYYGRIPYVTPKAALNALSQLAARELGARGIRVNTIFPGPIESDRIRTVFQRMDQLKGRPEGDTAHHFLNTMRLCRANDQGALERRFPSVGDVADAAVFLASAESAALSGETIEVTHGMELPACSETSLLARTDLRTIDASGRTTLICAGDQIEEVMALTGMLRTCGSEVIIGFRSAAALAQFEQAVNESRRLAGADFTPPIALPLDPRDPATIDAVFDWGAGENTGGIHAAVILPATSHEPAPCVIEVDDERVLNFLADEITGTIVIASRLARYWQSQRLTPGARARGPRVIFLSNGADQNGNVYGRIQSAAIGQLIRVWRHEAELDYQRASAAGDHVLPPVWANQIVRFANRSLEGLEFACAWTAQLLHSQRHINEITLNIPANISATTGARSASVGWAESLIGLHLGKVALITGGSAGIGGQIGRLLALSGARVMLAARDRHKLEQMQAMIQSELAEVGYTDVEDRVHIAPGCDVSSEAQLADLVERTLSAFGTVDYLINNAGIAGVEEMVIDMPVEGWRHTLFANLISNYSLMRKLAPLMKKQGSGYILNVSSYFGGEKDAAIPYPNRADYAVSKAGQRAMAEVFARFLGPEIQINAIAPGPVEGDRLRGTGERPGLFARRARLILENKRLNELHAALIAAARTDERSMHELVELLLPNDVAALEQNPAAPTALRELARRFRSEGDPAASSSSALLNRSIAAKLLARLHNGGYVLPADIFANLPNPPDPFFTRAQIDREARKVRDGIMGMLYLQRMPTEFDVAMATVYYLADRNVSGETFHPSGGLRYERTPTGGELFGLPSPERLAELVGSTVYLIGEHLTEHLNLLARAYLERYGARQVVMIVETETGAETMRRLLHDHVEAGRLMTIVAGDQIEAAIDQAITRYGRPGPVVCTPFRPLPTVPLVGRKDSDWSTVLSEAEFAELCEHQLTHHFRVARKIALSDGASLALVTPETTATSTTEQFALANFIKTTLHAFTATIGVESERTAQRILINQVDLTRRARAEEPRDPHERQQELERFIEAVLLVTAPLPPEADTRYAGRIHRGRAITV
The test is described as follows: MCRCa activity for conversion of tartronyl-CoA into glycerate (reactions 4# and 5), NADPH oxidation. As to conditions: FIG. 8D and Table 5; 37° C., pH 7.5, 0.4 mM NADPH; n=3. The protocol:
For the heterologous expression of the MCRCa protein (amino acid sequence is shown in SEQ ID NO: 8; corresponding nucleic acid sequence encoding the protein is depicted in SEQ ID NO: 7) the previously described pTRC-MCRCa plasmid (Kröger et al., 2011, Analytical biochemistry, 411(1), 100-105) was employed.
Cells were harvested at 10 000×g for 10 min and cell pellets were stored at −80° C. until purification of enzymes. Cell pellets of MCRCa and MCRE overexpressing cells were resuspended in two-fold volume of buffer AStrep (50 mM Tris/HCl, 150 mM NaCl, pH 7.8) containing 0.1 mg mL^−1 DNAse I. The cell suspension was passed through a French pressure cell twice at a pressure of 137 MPa and centrifuged at 100 000×g and 4° C. for 1 h. The supernatant was filtered through a 0.45 μm syringe filter and loaded at a flow rate of 1 mL min^−1 onto a 1 mL StrepTrap™ HP column (GE healthcare) which had previously been equilibrated with 5 column volumes of buffer AStrep. The column was washed with 20 column volumes of buffer AStrep and the protein was eluted with buffer AStrep containing 3 mM desthiobiotin. […]
The kinetics of the MCRCa enzyme for enzymatically converting the substrate tartonyl-CoA into glycerate (via reactions 4# and 5 both catalyzed by MCRCa) were determined spectrophotometrically at 365 nm following the oxidation of NADPH. […]

The compound `CC(C)(COP(=O)(O)OP(=O)(O)OC[C@H]1O[C@@H](n2cnc3c(N)ncnc32)[C@H](O)[C@@H]1OP(=O)(O)O)[C@@H](O)C(=O)NCCC(=O)NCCSC(=O)CO` [glycolyl-CoA] yielded a vmax in test [1] of 1.5 ± 0.09 U mg^−1.

Consider `CC(C)(COP(=O)(O)OP(=O)(O)OC[C@H]1O[C@@H](n2cnc3c(N)ncnc32)[C@H](O)[C@@H]1OP(=O)(O)O)[C@@H](O)C(=O)NCCC(=O)NCCSC(=O)C(O)C(=O)O` (stereo partly shown) [tartronyl-CoA], for which, in test [2], the Km was 180 ± 40 µM and the vmax is on record as 0.23±0.01 U mg^−1. The compound further registered a vmax in test [3] of 0.6 ± 0.01 U mg^−1.

What is called Km is the substrate concentration at which the rate is half of its maximum.
